Results as given in patent publication US20210267989A1, “Novel Compounds for the Treatment, Alleviation or Prevention of Disorders Associated with Tau Aggregates” (AC Immune SA, priority 2018, published 2021).

Biological target: T1, Tau K18 fragment aggregates (amino acids 244 to 372 of human Tau441) (Homo sapiens, UniProt P10636)
T1 construct: encompassing amino acids 244 to 372 of the longest isoform (2N4R) of human Tau441; host or cells: bacteria
Assay: Tau K18 disaggregation assay by ThT
Assay type: biochemical
Settings: ThT fluorescence; 2 μM K18 aggregates, 30 minutes at RT
Method: Tau K18 Disaggregation Assay by ThT
The Tau K18 fragment, encompassing amino acids 244 to 372 of the longest isoform (2N4R) of human Tau441, was expressed in bacteria and purified or bought from SignalChem. For the K18 disaggregation assay by ThT, 35 μM of recombinant K18 in PBS were aggregated for 24 hours at 37° C. in presence of 50 μM of heparin (Sigma-Aldrich) and 10 mM of DTT (Sigma-Aldrich) under shaking at 750 RPM. Compounds were dissolved in anhydrous dimethyl sulfoxide (DMSO, Sigma-Aldrich) to reach a concentration of 10 mM. K18 aggregates and serial dilutions of compounds were mixed together in PBS (volume 50 μL) to a final concentration of 2 μM of K18 aggregates and from 160 to 0.04 μM of compounds. The mixture was incubated for 30 minutes at room temperature (RT), then 40 μL of this mixture were transferred into a black 384-well plate assay (Perkin-Elmer) and mixed with 10 μL of 100 μM ThT in 250 mM glycine (both from Sigma-Aldrich) in PBS. Fluorescence (relative fluorescence units; RFU) was measured in monoplicate or duplicate on a Tecan reader (excitation: 440 nm; emission: 485 nm). Percentage of K18 disaggregation was then calculated and half maximal effective concentration (E050) was determined using GraphPad Prism version 5 (GraphPad Software) assuming a one-binding site fitting model.

T1 sequence (P10636 561-689): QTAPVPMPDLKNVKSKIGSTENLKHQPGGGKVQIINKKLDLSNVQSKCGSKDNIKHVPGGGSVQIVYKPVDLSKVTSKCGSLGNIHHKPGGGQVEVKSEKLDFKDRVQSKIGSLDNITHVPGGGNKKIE

EC50 | Compound
< 10 µM | COc1ccc2c(c1)c1c(n2C)CN(c2ccc3nc(N4CCOCC4)oc3c2)CC1 [Example 20]
< 10 µM | Fc1ccc2[nH]c3c(c2c1)CCN(c1ccc2sc(N4CCOCC4)nc2c1)C3 [Example 22]
< 10 µM | Fc1ccc2[nH]c3c(c2c1)CCN(c1ccc2nc(N4CCOCC4)sc2c1)C3 [Example 23]
< 10 µM | Fc1ccc2[nH]c3c(c2c1)CCN(c1ccc2nc(N4CCOCC4)oc2c1)C3 [Example 24]
< 10 µM | Fc1ccc2[nH]c3c(c2c1)CCN(c1ccc2oc(N4CCOCC4)nc2c1)C3 [Example 25]
< 10 µM | CN(C)c1nc2ccc(N3CCc4c([nH]c5ccc(F)cc45)C3)cc2s1 [Example 26]
< 10 µM | CN(C)c1nc2ccc(N3CCc4c([nH]c5ccc(F)cc45)C3)cc2o1 [Example 27]
< 10 µM | CN(C)c1nc2cc(N3CCc4c([nH]c5ccc(F)cc45)C3)ccc2o1 [Example 28]
< 10 µM | CN(C)c1nc2ccc(N3CCc4c(n(C)c5ccc(F)cc45)C3)cc2s1 [Example 29]
< 10 µM | COc1ccc2[nH]c3c(c2c1)CCN(c1ccc2sc(N4CCOCC4)nc2c1)C3 [Example 30]
< 10 µM | COc1ccc2[nH]c3c(c2c1)CCN(c1ccc2nc(N4CCOCC4)sc2c1)C3 [Example 31]
< 10 µM | COc1ccc2[nH]c3c(c2c1)CCN(c1ccc2nc(N4CCOCC4)oc2c1)C3 [Example 32]
10 to 25 µM | COc1ccc2[nH]c3c(c2c1)CCN(c1ccc2oc(N4CCOCC4)nc2c1)C3 [Example 33]
< 10 µM | COc1ccc2[nH]c3c(c2c1)CCN(c1ccc2sc(N(C)C)nc2c1)C3 [Example 34]
< 10 µM | COc1ccc2[nH]c3c(c2c1)CCN(c1ccc2nc(N(C)C)sc2c1)C3 [Example 35]
< 10 µM | COc1ccc2[nH]c3c(c2c1)CCN(c1ccc2nc(N(C)C)oc2c1)C3 [Example 36]
< 10 µM | COc1ccc2[nH]c3c(c2c1)CCN(c1ccc2oc(N(C)C)nc2c1)C3 [Example 39]
< 10 µM | Fc1ccc2[nH]c3c(c2c1)CCN(c1ccc(N2CCOCC2)nc1)C3 [Example 40]
< 10 µM | Fc1ccc2[nH]c3c(c2c1)CCN(c1ccc(N2CCOCC2)cn1)C3 [Example 41]
< 10 µM | CN(C)c1nc2cc(N3CCc4c([nH]c5ccc(F)cc45)C3)ccc2s1 [Example 42]
< 10 µM | Fc1ccc2[nH]c3c(c2c1)CCN(c1cnc(N2CCOCC2)c(F)c1)C3 [Example 48]

EC50 | Compound
< 10 µM | Fc1ccc2[nH]c3c(c2c1)CCN(c1cc2sc(N4CCOCC4)nc2cn1)C3 [Example 49]
10 to 25 µM | Fc1ccc2[nH]c3c(c2c1)CCN(c1cncc(N2CCOCC2)c1)C3 [Example 50]
10 to 25 µM | Fc1ccc2c3c([nH]c2c1)CN(c1cnc(N2CCOCC2)c(F)c1)CC3 [Example 51]
< 10 µM | Fc1ccc2c3c([nH]c2c1)CN(c1ccc(N2CCOCC2)c(F)c1)CC3 [Example 52]
< 10 µM | Fc1ccc2[nH]c3c(c2c1)CCN(c1cnc2nc(N4CCOCC4)sc2c1)C3 [Example 53]
< 10 µM | Fc1ccc2[nH]c3c(c2c1)CCN(c1ccc2nc(N4CCOCC4)sc2n1)C3 [Example 54]
< 10 µM | Fc1ccc2[nH]c3c(c2c1)CCN(c1ccc(N2CCOCC2)cc1)C3 [Example 55]
< 10 µM | Fc1ccc2[nH]c3c(c2c1)CCN(c1ccc(N2CCOCC2)cc1F)C3 [Example 56]
< 10 µM | Fc1ccc2c3c([nH]c2c1)CN(c1ccc(N2CCOCC2)cc1)CC3 [Example 57]
< 10 µM | Fc1cc(N2CCc3c([nH]c4ccccc34)C2)ccc1N1CCOCC1 [Example 58]
< 10 µM | c1ccc2c3c([nH]c2c1)CN(c1ccc(N2CCOCC2)cc1)CC3 [Example 59]
10 to 25 µM | CN1CCN(c2ccc(N3CCc4c([nH]c5cc(F)ccc45)C3)cc2)CC1 [Example 62]
< 10 µM | Cn1c2c(c3ccccc31)CCN(c1nc3ccc(N4CCOCC4)cc3o1)C2 [Example 67]
< 10 µM | c1ccc2c3c([nH]c2c1)CN(c1ccc(N2CCOCC2)nn1)CC3 [Example 68]
< 10 µM | c1ccc2c3c([nH]c2c1)CN(c1ccc(N2CCOC4(CCC4)C2)nc1)CC3 [Example 77]
< 10 µM | C[C@@H]1COCCN1c1ccc(N2CCc3c([nH]c4ccccc34)C2)cn1 [Example 78]
< 10 µM | Fc1cccc2[nH]c3c(c12)CCN(c1ccc(N2CCOCC2)nc1)C3 [Example 87]
< 10 µM | Fc1cccc2[nH]c3c(c12)CCN(c1ccc(N2CCOCC2)cn1)C3 [Example 88]
< 10 µM | Fc1cccc2[nH]c3c(c12)CCN(c1ccc2oc(N4CCOCC4)nc2c1)C3 [Example 89]
< 10 µM | Cn1c2c(c3c(F)cccc31)CCN(c1ccc3oc(N4CCOCC4)nc3c1)C2 [Example 90]
< 10 µM | Cn1c2c(c3cccc(F)c31)CCN(c1ccc3oc(N4CCOCC4)nc3c1)C2 [Example 91]

EC50 | Compound
< 10 µM | Fc1cccc2c3c([nH]c12)CN(c1ccc(N2CCOCC2)nc1)CC3 [Example 92]
< 10 µM | Fc1cccc2c3c([nH]c12)CN(c1ccc2oc(N4CCOCC4)nc2c1)CC3 [Example 93]
10 to 25 µM | CN1CCN(c2cnc(N3CCc4c(n(C)c5ccccc45)C3)cn2)CC1 [Example 94]
25 to 50 µM | CN1CCN(c2ccc(N3CCc4c(n(C)c5ccccc45)C3)cn2)CC1 [Example 95]
< 10 µM | Cn1c2c(c3ccccc31)CCN(c1ccc(N3CCOCC3)nn1)C2 [Example 96]
10 to 25 µM | CN1CCN(c2nc3cc(N4CCc5c(n(C)c6ccccc56)C4)ccc3o2)CC1 [Example 97]
25 to 50 µM | CN1CCN(c2nc3cc(N4CCc5c([nH]c6ccccc56)C4)ccc3o2)CC1 [Example 98]
< 10 µM | c1ccc2c3c([nH]c2c1)CN(c1ccc2oc(N4CCOCC4)nc2c1)CC3 [Example 99]
< 10 µM | Cn1c2c(c3ccccc31)CCN(c1ccc3oc(N4CCOCC4)nc3c1)C2 [Example 100]
< 10 µM | Cn1c2c(c3ccccc31)CCN(c1nc3cc(N4CCOCC4)ccc3o1)C2 [Example 101]
< 10 µM | c1ccc2c3c([nH]c2c1)CN(c1nc2ccc(N4CCOCC4)cc2o1)CC3 [Example 102]
< 10 µM | Fc1ccc2c3c([nH]c2c1)CN(c1ccc2oc(N4CCOCC4)nc2c1)CC3 [Example 103]
< 10 µM | Cn1c2c(c3ccccc31)CCN(c1ccc(C#N)nc1)C2 [Example 112]
< 10 µM | N#Cc1ccc(N2CCc3c([nH]c4ccccc34)C2)cn1 [Example 113]
< 10 µM | COC1CCN(c2ccc(N3CCc4c([nH]c5ccccc45)C3)nn2)CC1 [Example 117]
< 10 µM | C[C@H]1CN(c2ccc(N3CCc4c([nH]c5ccccc45)C3)nn2)CCO1 [Example 118]
< 10 µM | C[C@@H]1CN(c2ccc(N3CCc4c([nH]c5ccccc45)C3)nn2)CCO1 [Example 119]
< 10 µM | C[C@@H]1CN(c2ccc(N3CCc4c([nH]c5ccccc45)C3)nn2)C[C@H](C)O1 [Example 120]
10 to 25 µM | Fc1ccc2[nH]c3c(c2c1)CCN(c1ccc2ccc(N4CCOCC4)nc2c1)C3 [Example 121]
< 10 µM | Fc1ccc2[nH]c3c(c2c1)CCN(c1ccc2nc(N4CCOCC4)ccc2c1)C3 [Example 122]

Compound | EC50
c1ccc2c3c([nH]c2c1)CN(c1ccc2sc(N4CCOCC4)nc2c1)CC3 [Example 37] | 10 to 25 µM
c1ccc2c3c([nH]c2c1)CN(c1ccc(N2C4COCC2C4)nc1)CC3 [Example 70] | < 10 µM
C[C@@H]1CN(c2ccc(N3CCc4c([nH]c5ccccc45)C3)cn2)C[C@H](C)O1 [Example 76] | < 10 µM
c1ccc2c3c([nH]c2c1)CN(c1ccc(N2C[C@@H]4C[C@H]2CO4)nc1)CC3 [Example 86] | < 10 µM

Biological target: T2, recombinant full-length (fl)Tau aggregates (longest isoform of human Tau, 2N4R; 441 amino acids) (Homo sapiens, UniProt P10636)
T2 construct: 35 μM of recombinant full-length (fl)Tau in PBS were aggregated for 24 hours; made in house; host or cells: bacteria
Assay: Full-length Tau (flTau) disaggregation assay by Thioflavin T (ThT)
Assay type: biochemical
Settings: ThT fluorescence; 2 μM flTau aggregates, 30 minutes at RT
Method: Full-Length Tau (flTau) Disaggregation Assay by Thioflavin T (ThT)
The longest isoform of human Tau (2N4R; 441 amino acids) was expressed in bacteria and purified. For the Tau disaggregation assay by ThT, 35 μM of recombinant full-length (fl)Tau in PBS were aggregated for 24 hours at 37° C. in presence of 50 μM of heparin (Sigma-Aldrich) and 10 mM of DTT (Sigma-Aldrich) under shaking at 750 RPM. Compounds were dissolved in anhydrous dimethyl sulfoxide (DMSO, Sigma-Aldrich) to reach a concentration of 10 mM. flTau aggregates and serial dilutions of compounds were mixed together in PBS (volume 50 μL) to a final concentration of 2 μM of flTau aggregates and from 160 to 0.04 μM of compounds. The mixture was incubated for 30 minutes at room temperature (RT), then 40 μL of this mixture were transferred into a black 384-well plate assay (Perkin-Elmer) and mixed with 10 μL of 100 μM ThT in 250 mM glycine (both from Sigma-Aldrich) in PBS. Fluorescence (relative fluorescence units; RFU) was measured in monoplicate or duplicate on a Tecan reader (excitation: 440 nm; emission: 485 nm). Percentage of flTau disaggregation was then calculated and the half maximal effective concentration (EC50) was determined using GraphPad Prism version 5 (GraphPad Software) assuming a one-binding site fitting model.

T2 sequence (P10636 1-441 isoform P10636-8): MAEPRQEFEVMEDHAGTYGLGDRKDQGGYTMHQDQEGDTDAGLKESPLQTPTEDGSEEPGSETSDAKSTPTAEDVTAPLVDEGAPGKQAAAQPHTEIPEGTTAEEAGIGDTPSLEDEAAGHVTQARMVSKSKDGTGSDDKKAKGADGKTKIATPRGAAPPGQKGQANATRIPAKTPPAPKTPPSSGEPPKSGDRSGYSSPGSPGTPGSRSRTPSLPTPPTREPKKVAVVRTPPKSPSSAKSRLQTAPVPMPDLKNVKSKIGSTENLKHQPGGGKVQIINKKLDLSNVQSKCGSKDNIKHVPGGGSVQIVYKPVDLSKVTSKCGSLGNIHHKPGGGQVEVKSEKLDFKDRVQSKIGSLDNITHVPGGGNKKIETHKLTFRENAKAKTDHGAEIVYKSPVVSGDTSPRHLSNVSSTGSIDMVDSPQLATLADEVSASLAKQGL

EC50 | Compound
< 10 µM | Cn1c2c(c3ccccc31)CCN(c1ccc3nc(N4CCOCC4)sc3c1)C2 [Example 1]
< 10 µM | CN(C)c1nc2ccc(N3CCc4c(n(C)c5ccccc45)C3)cc2s1 [Example 2]
